Consider 26 molecules from patent publication US20240076297A1, “ADENOSINE A2A AND A2B RECEPTOR DUAL ANTAGONISTS FOR IMMUNO-ONCOLOGY” (Merck Sharp & Dohme LLC, priority 2020, published 2024).

The target of test [1] is human A2B adenosine receptor (Homo sapiens (Human), UniProt P29275). Nature of the test: A2B binding affinity, radioligand filtration binding assay. The conditions noted are these: HEK293 membranes expressing human A2B, tritiated proprietary antagonist. From the text:
Method (A) describes the procedure used to measure A2A binding affinity using radioligand binding. Method (B) describes the procedure used to measure A2A binding affinity using SPA technology. The method used to measure A2B binding affinity is also described below. The method used to determine the A2A IC50 value reported for each compound in the table is indicated next to the reported value. The A2B IC50 value measured using the A2B binding affinity assay is shown in the table next to the compound under the corresponding A2A value.
Measurement of A2B Binding Affinity
The reported affinity of the compounds of the invention for the human A2B adenosine receptor was determined experimentally using a radioligand filtration binding assay. This assay measures the amount of binding of a tritiated proprietary A2B receptor antagonist, in the presence and absence of a compound of the invention, to membranes made from HEK293 cells recombinantly expressing the human A2B adenosine receptor (Perkin Elmer, Cat. No. ES-013-C).
148 μL (135 μg/mL) membranes and 2 μL test compounds were transferred to individual wells of a 96-well polypropylene assay plate and incubated for 15 to 30 min at room temperature with agitation. Tritiated radioligand was diluted to a concentration of 14 nM in assay buffer (phosphate buffered saline without Magnesium and Calcium, pH 7.4; GE Healthcare Life Sciences, Cat. No. SH30256.01) and then 50 μL of the solution were transferred to each well of the assay plate. To define total and non-specific binding, wells containing 1% DMSO and 20 μM N-ethylcarboxamidoadenosine (Tocris Bioscience, Cat. No. 1691) respectively, were also included. The wells of the assay plate were incubated at room temperature for 60 min with agitation, then filtered using a FilterMate Harvester® (Perkin Elmer) or similar equipment through a UniFilter-96@ PEI coated plate (Perkin Elmer Cat. No. 6005274 or 6005277). Filtering was achieved by aspirating the contents of the assay plate for 5 sec, then washing and aspirating the contents three times with ice-cooled wash buffer (assay buffer supplemented with 0.0025% Brij58) and allowing the vacuum manifold to dry the plate for 30 sec. The filter plate was incubated for at least 1 h at 55° C. and allowed to dry. The bottom of the filter plate was then sealed with backing tape. 40 μL Ultima Gold™ (Perkin Elmer, Cat. No. 6013329) was added to each well of the filter plate and the top of the plate was sealed with TopSeal-A PLUS® clear plate seal (Perkin Elmer, Cat. No. 6050185). The plates were then incubated for at least 20 min, and then the amount of radioactivity remaining in each well was determined using a TopCount® (Perkin Elmer) scintillation counter. After normalization to total and non-specific binding, the percent effect at each compound concentration was calculated. The plot of percent effect versus the log of compound concentration was analyzed electronically using a 4-parameter logistic fit based on the Levenberg-Marquardt algorithm to generate IC50 values.

For test [2], the target named is human A2A adenosine receptor (Homo sapiens (Human), UniProt P29274). The test can be described thus: A2A binding affinity using radioligand binding, Method (A). The conditions noted are these: Method (A): filtration radioligand binding, [3H] SCH58261, membranes expressing human A2A. The gist of the method:
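Filtration binding used HEK293 or CHO membranes (5 μg/mL) preincubated with compound for 15–30 min at RT. [3H]SCH58261 (4 nM working solution) was added in Tris pH 7.4/10 mM MgCl2/0.005% Tween20 for 60 min at RT, with 1 μM ZM241385 defining nonspecific binding. Scintillation counts gave IC50 via 4-parameter logistic fit.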

Chain of human A2B adenosine receptor (P29275 whole entry): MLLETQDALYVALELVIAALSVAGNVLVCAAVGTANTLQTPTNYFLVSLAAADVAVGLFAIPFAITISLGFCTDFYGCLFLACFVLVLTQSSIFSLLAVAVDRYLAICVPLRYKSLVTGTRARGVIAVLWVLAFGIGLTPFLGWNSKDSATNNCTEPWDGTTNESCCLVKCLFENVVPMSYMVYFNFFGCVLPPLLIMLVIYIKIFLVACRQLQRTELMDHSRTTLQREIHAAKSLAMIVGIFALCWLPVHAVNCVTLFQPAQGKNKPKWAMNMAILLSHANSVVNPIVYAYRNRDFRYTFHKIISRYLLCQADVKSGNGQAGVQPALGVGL
Chain of human A2A adenosine receptor (P29274 whole entry): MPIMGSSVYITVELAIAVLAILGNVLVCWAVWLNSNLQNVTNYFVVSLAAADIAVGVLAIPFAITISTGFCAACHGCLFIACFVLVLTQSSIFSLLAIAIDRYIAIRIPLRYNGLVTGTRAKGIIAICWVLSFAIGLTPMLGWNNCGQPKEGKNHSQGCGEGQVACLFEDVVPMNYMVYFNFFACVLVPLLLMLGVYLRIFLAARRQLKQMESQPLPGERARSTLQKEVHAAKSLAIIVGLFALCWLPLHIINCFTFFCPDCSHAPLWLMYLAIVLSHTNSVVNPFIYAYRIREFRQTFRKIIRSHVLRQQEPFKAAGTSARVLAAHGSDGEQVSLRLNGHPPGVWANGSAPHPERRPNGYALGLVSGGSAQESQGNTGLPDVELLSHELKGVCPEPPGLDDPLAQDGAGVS

By IC50 is commonly meant the point on the concentration scale where inhibition reaches its midpoint. The low end stands for greater potency in that assay, the high end for weaker potency in that assay. Regarding `COc1cccc2c1nc(N)n1nc(COCc3ccc(C(C)(C)O)cc3)nc21` [Example 4.15, 2-(4-(((5-amino-7-methoxy-[1,2,4]triazolo[1,5-c]quinazolin-2-yl)methoxy)methyl)phenyl)propan-2-ol], the results for the IC50 in test [1] (value given with marker (A)) and in test [2] were 10 nM and 0.2 nM, respectively.
As to `COc1cc(F)cc2c1nc(N)n1nc(COCc3ccc(C(O)(C(F)(F)F)C(F)(F)F)cc3)nc21` [Example 4.16, 2-(4-(((5-amino-9-fluoro-7-methoxy-[1,2,4]triazolo[1,5-c]quinazolin-2-yl)methoxy)methyl)phenyl)-1,1,1,3,3,3-hexafluoropropan-2-ol], the IC50 in test [1] (value given with marker (A)) came out at 0.9 nM; in test [2], 0.3 nM.
With `COc1cc2nc(N)n3nc(CCS(=O)(=O)c4ccccc4)nc3c2cc1F` [Example 6.2, 9-fluoro-8-methoxy-2-(2-(phenylsulfonyl)ethyl)-[1,2,4]triazolo[1,5-c]quinazolin-5-amine], the 50% inhibitory concentration (IC50) in test [1] (value given with marker (A)) was 455 nM; in test [2] it was 4.8 nM.
On to `COc1cccc2c1nc(N)n1nc(CCS(C)(=O)=O)nc21` [Example 6.3, 7-methoxy-2-(2-(methylsulfonyl)ethyl)-[1,2,4]-triazolo[1,5-c]quinazolin-5-amine], for which the figures for the IC50 in test [1] (value given with marker (A)) and in test [2] were 535 nM and 8.2 nM, respectively.
For `COc1cc2nc(N)n3nc(CCS(C)(=O)=O)nc3c2cc1F` [Example 6.4, 9-fluoro-8-methoxy-2-(2-(methylsulfonyl)ethyl)-[1,2,4]triazolo[1,5-c]quinazolin-5-amine] the same measures were 1900 nM and 222 nM.
As for `COc1cc2nc(N)n3nc(CCS(N)(=O)=O)nc3c2cc1F` [Example 6.5, 2-(5-amino-9-fluoro-8-methoxy-[1,2,4]triazolo-[1,5-c]quinazolin-2-yl)ethane-1-sulfonamide], the IC50 amounted to 113 nM in test [1] (value given with marker (A)) and 107 nM in test [2].
Regarding `COc1cccc2c1nc(N)n1nc(CS(=O)(=O)c3ccccc3)nc21` [Example 6.6, 7-methoxy-2-((phenylsulfonyl)methyl)-[1,2,4]triazolo-[1,5-c]quinazolin-5-amine], the IC50 in test [1] (value given with marker (B)) was 3780 nM; in test [2], 4.2 nM.
As to `COc1cccc2c1nc(N)n1nc(CCS(=O)(=O)c3ccc(F)cc3)nc21` [Example 13.4, 2-(2-((4-fluorophenyl)sulfonyl)ethyl)-7-methoxy-[1,2,4]triazolo[1,5-c]quinazolin-5-amine], the IC50 stood at 973 nM in test [1] (value given with marker (A)) and 0.3 nM in test [2].
For `COc1ccc2c(c1)nc(N)n1nc(CCS(=O)(=O)c3ccc(F)cc3)nc21` [Example 13.7, 2-(2-((4-fluorophenyl)sulfonyl)ethyl)-8-methoxy-[1,2,4]triazolo[1,5-c]quinazolin-5-amine], the IC50 worked out at 607 nM in test [1] (value given with marker (A)) and 170 nM in test [2].
`COc1ccc2c(c1)nc(N)n1nc(CCS(=O)(=O)CC(C)C)nc21` [Example 13.8, 2-(2-(isobutylsulfonyl)ethyl)-8-methoxy-[1,2,4]triazolo-[1,5-c]quinazolin-5-amine]: the figures for the IC50 in test [1] (value given with marker (A)) and in test [2] were 894 nM and 76.9 nM, respectively.
`CCS(=O)(=O)CCc1nc2c3ccc(OC)cc3nc(N)n2n1` [Example 13.9, 2-(2-(ethylsulfonyl)ethyl)-8-methoxy-[1,2,4]triazolo-[1,5-c]quinazolin-5-amine]: the IC50 was determined as 1060 nM in test [1] (value given with marker (A)) and 246 nM in test [2].
In the case of `COc1cc(F)cc2c1nc(N)n1nc(CCS(=O)(=O)C3CC3)nc21` [Example 13.10, 2-(2-(cyclopropylsulfonyl)ethyl)-9-fluoro-7-methoxy-[1,2,4]triazolo[1,5-c]quinazolin-5-amine], the IC50 in test [1] (value given with marker (A)) turned out to be 9.8 nM; in test [2] it was 0.8 nM.
Regarding `COc1cc(F)cc2c1nc(N)n1nc(CCS(=O)(=O)CC(C)C)nc21` [Example 13.11, 9-fluoro-2-(2-(isobutylsulfonyl)ethyl)-7-methoxy-[1,2,4]triazolo[1,5-c]quinazolin-5-amine], the IC50 in test [1] (value given with marker (A)) worked out at 666 nM; in test [2], 28.8 nM.
For `CCS(=O)(=O)CCc1nc2c3cc(F)c(OC)cc3nc(N)n2n1` [Example 13.12, 2-(2-(ethylsulfonyl)ethyl)-9-fluoro-8-methoxy-[1,2,4]triazolo[1,5-c]quinazolin-5-amine] the same measures were 1720 nM and 165 nM.
For the molecule `COc1cc2nc(N)n3nc(CCS(=O)(=O)c4ccc(F)cc4)nc3c2cc1F` [Example 13.13, 9-fluoro-2-(2-((4-fluorophenyl)sulfonyl)ethyl)-8-methoxy-[1,2,4]triazolo[1,5-c]quinazolin-5-amine], the IC50 in test [1] (value given with marker (A)) came to 1040 nM; in test [2], 57.7 nM.
For `COc1cc2nc(N)n3nc(CCS(=O)(=O)C4CC4)nc3c2cc1F` [Example 13.14, 2-(2-(cyclopropylsulfonyl)ethyl)-9-fluoro-8-methoxy-[1,2,4]triazolo[1,5-c]quinazolin-5-amine], the IC50 in test [1] (value given with marker (A)) was found to be 197 nM; in test [2] it was 9.1 nM.
For the molecule `CCS(=O)(=O)CCc1nc2c3cc(F)cc(OC)c3nc(N)n2n1` [Example 13.15, 2-(2-(ethylsulfonyl)ethyl)-9-fluoro-7-methoxy-[1,2,4]triazolo[1,5-c]quinazolin-5-amine], the values for the IC50 in test [1] (value given with marker (A)) and in test [2] were 220 nM and 9.8 nM, respectively.
For `COc1cc2nc(N)n3nc(CCS(=O)(=O)CC(C)C)nc3c2cc1F` [Example 13.16, 9-fluoro-2-(2-(isobutylsulfonyl)ethyl)-8-methoxy-[1,2,4]triazolo[1,5-c]quinazolin-5-amine] the same measures were 1080 nM and 107 nM.
For the molecule `COc1cccc2c1nc(N)n1nc(CCS(C)(=O)=O)nc21` [Example 13.17, 7-methoxy-2-(2-(methylsulfonyl)ethyl)-[1,2,4]triazolo[1,5-c]quinazolin-5-amine], the figures for the IC50 in test [1] (value given with marker (A)) and in test [2] were 410 nM and 28.1 nM, respectively.
For `COc1cc(F)cc2c1nc(N)n1nc(CCCS(=O)(=O)C3CC3)nc21` [Example 13.18, 2-(3-(cyclopropylsulfonyl)propyl)-9-fluoro-7-methoxy-[1,2,4]triazolo[1,5-c]quinazolin-5-amine], the values for the concentration for half-maximal inhibition (IC50) in test [1] (value given with marker (A)) and in test [2] were 112 nM and 1.1 nM, respectively.
Take `CC[C@@H](O)Cc1nc2c3cccc(OC)c3nc(N)n2n1` [Example 17.2, (R)-1-(5-amino-7-methoxy-[1,2,4]triazolo[1,5-c]quinazolin-2-yl)butan-2-ol]: the IC50 in test [1] (value given with marker (B)) was 307 nM; in test [2], 13.9 nM.
As to `COc1cccc2c1nc(N)n1nc([C@@H](C)CO)nc21` [Example 17.3, (R)-2-(5-amino-7-methoxy-[1,2,4]triazolo[1,5-c]quinazolin-2-yl)propan-1-ol], the IC50 in test [1] (value given with marker (B)) came to 2990 nM; in test [2], 264 nM.
Take `COc1cccc2c1nc(N)n1nc([C@H](C)CO)nc21` [Example 17.4, (S)-2-(5-amino-7-methoxy-[1,2,4]triazolo[1,5-c]quinazolin-2-yl)propan-1-ol]: the IC50 in test [1] (value given with marker (B)) turned out to be 1070 nM; in test [2], 145 nM.
The matching figures for `COc1cccc2c1nc(N)n1nc(CC(C)(C)O)nc21` [Example 18.2, 1-(5-amino-7-methoxy-[1,2,4]triazolo[1,5-c]quinazolin-2-yl)-2-methylpropan-2-ol]: 128 nM and 30.8 nM.
With `COc1cccc2c1nc(N)n1nc(C[C@H](C)O)nc21` [Example 18.3, (S)-1-(5-amino-7-methoxy-[1,2,4]triazolo[1,5-c]quinazolin-2-yl)propan-2-ol], the IC50 came out at 214 nM in test [1] (value given with marker (B)) and 6.7 nM in test [2].
Take `COc1cccc2c1nc(N)n1nc(C[C@@H](C)O)nc21` [Example 18.4, (R)-1-(5-amino-7-methoxy-[1,2,4]triazolo[1,5-c]quinazolin-2-yl)propan-2-ol]: the figures for the IC50 in test [1] (value given with marker (B)) and in test [2] were 209 nM and 15.1 nM, respectively.
